For assay [1], the system named is rabbit antisera to 24S-hydroxycholesterol (Day 77, rabbit #71). Briefly: Cross-reactivity in competitive 24HC enzyme immunoassay, antiserum of rabbit #71. In kind it is binding. Conditions: Table 3; antiserum Day 77, rabbit #71. The protocol: (§1) 24HC Enzyme Immunoassay Protocol
(§2) 1. Known concentrations of 24HC were prepared in 100 mM phosphate, 150 mM NaCl, 1% BSA, pH 7.2 assay buffer containing biotinylated […] (described above) and added to wells of a 96 well microtiter plate that were coated with a goat anti-rabbit IgG antibody. Rabbit polyclonal antibody to 24HC was diluted to a limiting concentration in 100 mM Tris, 150 mM NaCl, 1% BSA buffer and 100 μL was added to each well. The plate was incubated at room temperature for 1 hour with orbital shaking. During this incubation the anti-24HC antibody binds to the goat anti-rabbit IgG antibody on the plate. Also, the 24HC standard competes with the biotinylated 24HC for anti-24HC antibody binding sites. Thus, with more 24HC standard, less biotinylated 24HC binds to the antibody binding sites on the plate.
(§3) 2. Following this incubation, the plate was washed 4 times with 300 μL of 50 mM Tris, 100 mM NaCl, 0.05% Tween-20 buffer. After washing, bound 24HC or bound biotinylated 24HC is bound to the binding sites on the anti-24HC antibodies.
(§4) 3. Streptavidin conjugated to HRP (200 μL), diluted in 100 mM phosphate, 150 mM NaCl, 1% BSA, pH 7.2 assay buffer, was then added to each well to allow detection of the biotinylated 24HC. The plate was then incubated at room temperature for 30 minutes.
(§5) 4. The plate was then washed 4 times with 300 μL of 50 mM Tris, 100 mM NaCl, 0.05% Tween-20 buffer to remove excess streptavidin-HRP conjugate. TMB substrate solution (200 μL) is added to each well. The plates were incubated at room temperature for 30 min.
(§6) 5. After color development, 50 μL of 1N HCl stop solution is added to each well to stop the substrate reaction. The resulting yellow color was read at 450 nm. […]. The intensity of yellow color is inversely proportional to the concentration of 24HC that was added to the well.
(§7) Cross-reactivities of antisera taken from another rabbit at Day 77 (rabbit #71), subjected to the same immunization protocol, as well as a repeat of the rabbit #72 antisera, were also determined.

For assay [2], the system named is rabbit antisera to 24S-hydroxycholesterol (Day 77 bleed, rabbit #72). Briefly: Cross-reactivity in competitive 24HC enzyme immunoassay, antiserum of rabbit #72. Conditions: for Bleed #72 % Cross reactivity: Table 3, repeat of the rabbit #72 antisera; for % Cross reactivity: Table 2, antiserum Day 77 bleed, rabbit #72, relative to 24HC. The class given is binding. The method, then: as §1, §2, §3, §4, §5, §6
The multiple regression line shown therein has an R^2 of 0.996. The detectable range for 24HC for this assay is as shown is 1.56-100 ng/mL. The total assay time is 2 h.
Cross-reactivity of the antisera tested above (Day 77 bleed, rabbit #72) to the following structurally similar molecules was determined:
as §7

With `C[C@H](CCCC(C)(C)O)[C@H]1CC[C@H]2[C@@H]3CC=C4C[C@@H](O)CC[C@]4(C)[C@H]3CC[C@]12C` [25-Hydroxycholesterol], in assay [1], the “Bleed #71 % Cross reactivity” value amounted to 0.19%. The “Bleed #72 % Cross reactivity” value in assay [2] came to 0.725%.

As for `CC(C)CC[C@@H](O)[C@@H](C)[C@H]1CC[C@H]2[C@@H]3CC=C4CC(O)CC[C@]4(C)[C@H]3CC[C@]12C` (stereo in doubt) [22-Hydroxycholesterol], the “Bleed #71 % Cross reactivity” value in assay [1] was determined as 0.020%. Further, in assay [2], the “% Cross reactivity” value stood at 0.15% and the “Bleed #72 % Cross reactivity” value amounted to 0.11%.

For `C[C@@H](CO)CCC[C@@H](C)[C@H]1CC[C@H]2[C@@H]3CC=C4C[C@@H](O)CC[C@]4(C)[C@H]3CC[C@]12C` [27-Hydroxycholesterol], the “Bleed #71 % Cross reactivity” value in assay [1] came to 0.022%. Also, the “Bleed #72 % Cross reactivity” value in assay [2] is less than 0.001%.

Consider `C[C@]12CC[C@H](O)CC1=CC[C@@H]1[C@@H]2CC[C@]2(C)C(=O)CC[C@@H]12` [DHEA], for which the “Bleed #71 % Cross reactivity” value in assay [1] was found to be 0.015%. Besides, in assay [2], the “% Cross reactivity” value was found to be 0.05% and the “Bleed #72 % Cross reactivity” value was determined as 0.018%.

With `CC(C)CCC[C@@H](C)[C@H]1CC[C@H]2[C@@H]3CC=C4C[C@@H](O)CC[C@]4(C)[C@H]3CC[C@]12C` [Cholesterol], the “Bleed #71 % Cross reactivity” value in assay [1] is reported as 0.002%. Besides, in assay [2], the “% Cross reactivity” value was less than 0.001% and the “Bleed #72 % Cross reactivity” value is 0.003%.

(Values after patent publication US10197583B2, “Hydroxycholesterol immunoassay” (ENZO LIFE SCIENCES, INC. C/O ENZO BIOCHEM, INC., priority 2010, dated 2019).)
